The results in this text go back to patent publication US9345247B2, “Azaindole carboxylic acid amides and azaindole thiocarboxylic acid amides for use as insecticides and acaricides” (BAYER CROPSCIENCE AG, priority 2012, dated 2016).

Series [1] relates to green peach aphid (Myzus persicae). Kind of series: Myzus persicae spray test (MYZUPE). The class given is in vivo. The settings on record: 100 g/ha, after 6 days. On the procedure: Myzus persicae-Spray Test (MYZUPE) [table] To produce a suitable active compound formulation, 1 part by weight of active compound is mixed with the stated amounts of solvent and emulsifier, and the concentrate is diluted with emulsifier-containing water to the desired concentration. Discs of Chinese cabbage leaves (Brassica pekinensis) infested by all stages of the green peach aphid (Myzus persicae) are sprayed with an active compound formulation of the desired concentration. After 6 days, the efficacy in % is determined 100% means that all the aphids have been killed; 0% means that none of the aphids have been killed.

For series [2], the system named is larvae of the mustard beetle (Phaedon cochleariae). Kind of series: Phaedon cochleariae spray test (PHAECO). In kind it is in vivo. A digest of the protocol:
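Chinese cabbage (Brassica pekinensis) leaf discs sprayed with compound in emulsifier-containing water at the desired concentration, dried, then infested with larvae. Efficacy scored after 7 days as % larvae killed (100% = all dead, 0% = none).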

Series [3] concerns caterpillars of the armyworm (Spodoptera frugiperda). Put plainly: Spodoptera frugiperda spray test (SPODFR). In kind it is in vivo. As to conditions: for efficacy: 100 g/ha, spray, after 7 days. On the procedure:
Spodoptera frugiperda—Spray Test (SPODFR)
(§1) To produce a suitable active compound formulation, 1 part by weight of active compound is mixed with the stated amounts of solvent and emulsifier, and the concentrate is diluted with emulsifier-containing water to the desired concentration.
Leaf discs of maize (Zea mays) are sprayed with an active compound formulation of the desired concentration and, after drying, populated with caterpillars of the armyworm (Spodoptera frugiperda).
After 7 days, the efficacy in % is determined. 100% means that all the caterpillars have been killed; 0% means that no caterpillars have been killed.
To produce a suitable preparation of active compound, 1 part by weight of active compound is mixed with the stated amounts of solvent and emulsifier, and the concentrate is diluted with emulsifier-containing water to the desired concentration.
Leaf discs of maize (Zea mays) are sprayed with an active compound preparation of the desired concentration and, after drying, populated with caterpillars of the armyworm (Spodoptera frugiperda).
After the stated period of time, the effect in % is determined. 100% means that all the caterpillars have been killed; 0% means that no caterpillars have been killed.

The test system of series [4] is greenhouse red spider mite (Tetranychus urticae). Put plainly: Tetranychus urticae spray test, OP-resistant (TETRUR). In kind it is in vivo. The settings on record: for efficacy: 100 g/ha, spray, after 6 days. On the procedure:
as §1
Discs of bean leaves (Phaseolus vulgaris) infested by all stages of the greenhouse red spider mite (Tetranychus urticae) are sprayed with an active compound formulation of the desired concentration.
After 6 days, the efficacy in % is determined 100% means that all the spider mites have been killed; 0% means that none of the spider mites have been killed. […]

Series [5] in a line: log P by HPLC on reversed-phase column (C18), EEC directive 79/831 Annex V.A8. In kind it is physicochemical. As to conditions: HPLC, acidic range pH 2.7, 43° C. In short, it runs like this: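 log P determined per EEC directive 79/831 Annex V.A8 by reversed-phase C18 HPLC at 43 °C, calibrated with unbranched alkan-2-ones (C3–C16) of known log P. Acidic-range determination at pH 2.7 with 0.1% formic acid acetonitrile/water, linear 10–95% acetonitrile gradient.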

Another series concerns Boophilus microplus. Put plainly: Boophilus microplus test (BOOPMI injection). In kind it is in vivo. The settings on record: 20 μg/animal, after 7 days. On the procedure: Boophilus microplus Test (BOOPMI Injection) [table] To produce a suitable active compound formulation, 10 mg of active compound are mixed with 0.5 ml of solvent and the concentrate is diluted with solvent to the desired concentration. The active compound solution is injected into the abdomen (Boophilus microplus), and the animals are transferred into dishes and stored in a climate-controlled room. After 7 days, the efficacy in % is determined. The activity is assessed by laying of fertile eggs. 100% means that none of the ticks has laid any fertile eggs.

The subject of a further series is Ctenocephalides felis. Kind of series: Ctenocephalides felis; oral (CTECFE). In kind it is in vivo. The settings on record: 100 ppm, oral in cattle blood, after 2 days. On the procedure:
Ctenocephalides felis; Oral (CTECFE)
To produce a suitable active compound formulation, 10 mg of active compound are mixed with 0.5 ml of dimethyl sulphoxide. A portion of the concentrate is diluted with citrated cattle blood, and the desired concentration is prepared.
About 20 unfed adult fleas (Ctenocephalides felis) are placed into a chamber which is closed at the top and bottom with gauze. A metal cylinder whose bottom end is closed with parafilm is placed onto the chamber. The cylinder contains the blood/active compound preparation, which can be imbibed by the fleas through the parafilm membrane.
After 2 days, the kill in % is determined 100% means that all fleas have been killed; 0% means that none of the fleas have been killed.

The next series concerns Lucilia cuprina larvae. Kind of series: Lucilia cuprina test (LUCICU). In kind it is in vivo. As to conditions: 100 ppm, after 2 days. On the procedure: Lucilia cuprina Test (LUCICU) [table] To produce a suitable active compound formulation, 10 mg of active compound are mixed with 0.5 ml of dimethyl sulfoxide, and the concentrate is diluted with water to the desired concentration. Vessels containing horse meat treated with the active compound formulation of the desired concentration are populated with about 20 Lucilia cuprina larvae. After 2 days, the kill in % is determined 100% means that all the larvae have been killed; 0% means that none of the larvae have been killed.

Another series relates to adult Musca domestica. Kind of series: Musca domestica test (MUSCDO). The class given is in vivo. The settings on record: 100 ppm, after 2 days. On the procedure:
Musca domestica Test (MUSCDO) [table] To produce a suitable active compound formulation, 10 mg of active compound are mixed with 0.5 ml of dimethyl sulfoxide, and the concentrate is diluted with water to the desired concentration. Vessels containing a sponge treated with the active compound formulation of the desired concentration are populated with adult Musca domestica. After 2 days, the kill in % is determined 100% means that all flies have been killed; 0% means that no flies have been killed.

`CCn1c(C(=O)NC(c2ccc(F)c(C(F)(F)F)c2)C(F)(F)F)cc2cc(C(=O)NC3(C#N)CC3)c(C)nc21` (centres unmarked) [Compound 75]: the efficacy in series [1] stood at 90%; in series [2] (100 g/ha, spray, after 7 days), 100%; in series [3] it was 100%; in series [4] it was 100%. Also, the log p in [5] worked out at 3.64.

In the case of `CCn1c(C(=O)NC(c2cc(Cl)c(F)c(Cl)c2)C(F)(F)F)cc2cc(C(=O)NC3(C(N)=S)CC3)c(Cl)nc21` (centres unmarked) [Compound 64], the “efficacy (laying of fertile eggs)” value in the series with Boophilus microplus came out at 100%. The “efficacy (kill)” value in the series on Ctenocephalides felis, in the series with Lucilia cuprina larvae and with adult Musca domestica was 100% in each case. Further, the efficacy was 100% in [2] (100 g/ha, spray, after 7 days); 100% in [3]; 100% in series [4]. The log p in series [5] worked out at 3.97.

As to `CCn1c(C(=O)NC(c2cccc(C(F)(F)F)c2)C(F)(F)F)cc2cc(C(=O)NC3(C#N)CC3)c(Cl)nc21` (centres unmarked) [Compound 11], the “efficacy (laying of fertile eggs)” value with Boophilus microplus stood at 100%. Moreover, the “efficacy (kill)” value in the series on Ctenocephalides felis, with Lucilia cuprina larvae and in the series with adult Musca domestica was 100% in each case. Further, the efficacy in series [1] worked out at 100%; in series [2] (100 g/ha, spray, after 7 days) it was 100%; in series [3], 100%; in series [4] it was 100%. Also, the log p in [5] was 3.68.

With `Cn1c(C(=O)NC(c2cccc(C(F)(F)F)c2)C(F)(F)F)cc2cc(C(=O)NC3CC3)c(Cl)nc21` (centres unmarked) [Compound 22], the “efficacy (laying of fertile eggs)” value with Boophilus microplus was determined as 100%. Besides, the “efficacy (kill)” value in the series with Ctenocephalides felis is given as 95%; with Lucilia cuprina larvae it was 100%; in the series on adult Musca domestica, 100%. Further, the pest or weed control at 100 g/ha in series [2] (Phaedon cochleariae, 168 h, 100 g/ha, spray, after 7 days, read-out: efficacy) came out at 100%. Also, in series [2] (Phaedon cochleariae, 168 h, PHAECO, 0.8 g of ai/ha, 7 d, read-out: % Efficacy dat), the percent efficacy (larval mortality) at 0.8 g/ha turned out to be 100%. In addition, the efficacy in series [3] and in series [4] was 100% each time. Besides, the Emax at 4 g/ha was 100% in series [3] (Spodoptera frugiperda, 168 h, SPODFR, 4 g of ai/ha, 7 d, read-out: % Efficacy dat) and 90% in series [4] (Tetranychus urticae, 144 h, TETRUR, 4 g of ai/ha, 6 d, read-out: % Efficacy dat). Also, the chromatographic logP in series [5] (reversed-phase HPLC column (C18), read-out: log p) stood at 3.4.

As for `CCn1c(C(=O)NC(c2cccc(C(F)(F)F)c2)C(F)(F)F)cc2cc(C(=O)NC3CCC3)c(Cl)nc21` (centres unmarked) [Compound 15], the efficacy is on record as 90% in series [1] and 100% in series [2] (100 g/ha, spray, after 7 days). The compound further gave a log p in series [5] of 4.12.

For `CCn1c(C(=O)NC(c2cccc(C(F)(F)F)c2)C(F)(F)F)cc2cc(C(=O)NC3CC3)c(Cl)nc21` (centres unmarked) [Compound 12], in the series with Boophilus microplus, the “efficacy (laying of fertile eggs)” value is 100%. The “efficacy (kill)” value in the series on Ctenocephalides felis, with Lucilia cuprina larvae and in the series with adult Musca domestica was 100% in each case. In addition, the efficacy was 100% in series [2] (100 g/ha, spray, after 7 days); 100% in series [3]; 100% in series [4]. This compound also had a log p in [5] of 3.70.

On to `CCn1c(C(=O)NC(c2ccc(F)c(Cl)c2)C(F)(F)F)cc2cc(C(=O)NC3(C(N)=S)CC3)c(Cl)nc21` (centres unmarked) [Compound 65], for which, in the series with Boophilus microplus, the “efficacy (laying of fertile eggs)” value came to 100%. Also, the “efficacy (kill)” value with Ctenocephalides felis was determined as 100%; in the series on Lucilia cuprina larvae it was 100%; with adult Musca domestica, 80%. The efficacy in series [2] (100 g/ha, spray, after 7 days) stood at 100%; in series [3], 100%; in series [4], 90%. In addition, the log p in series [5] is reported as 3.51.

On to `CCn1c(C(=O)NC(c2ccc(F)c(Cl)c2)C(F)(F)F)cc2cc(C(=O)NC3(C#N)CC3)c(Cl)nc21` (centres unmarked) [Compound 26], for which, in the series on Boophilus microplus, the “efficacy (laying of fertile eggs)” value was found to be 100%. In addition, the “efficacy (kill)” value in the series on Ctenocephalides felis, in the series on Lucilia cuprina larvae and in the series on adult Musca domestica was 100% each time. Also, the efficacy in series [1] is listed as 100%; in [2] (100 g/ha, spray, after 7 days), 100%; in series [3], 100%; in [4] it was 100%. The same compound had a log p in series [5] of 3.62.

`CCn1c(C(=O)NC(c2cc(Cl)c(F)c(Cl)c2)C(F)(F)F)cc2cc(C(=O)NC3(C#N)CC3)c(Cl)nc21` (centres unmarked) [Compound 27]: the “efficacy (laying of fertile eggs)” value in the series on Boophilus microplus came out at 100%. Besides, the “efficacy (kill)” value in the series with Ctenocephalides felis, in the series with Lucilia cuprina larvae and in the series with adult Musca domestica was 100% throughout. The efficacy was found to be 100% in series [2] (100 g/ha, spray, after 7 days); 100% in series [3]; 100% in series [4]. Further, the log p in series [5] was found to be 4.11.

With `CCn1c(C(=O)NC(c2cc(Cl)c(F)c(Cl)c2F)C(F)(F)F)cc2cc(C(=O)NC3(C(N)=S)CC3)c(Cl)nc21` (centres unmarked) [Compound 63], the “efficacy (laying of fertile eggs)” value with Boophilus microplus worked out at 100%. For the same compound, the “efficacy (kill)” value with Ctenocephalides felis, with Lucilia cuprina larvae and in the series with adult Musca domestica was 100% throughout. The efficacy in series [2] (100 g/ha, spray, after 7 days) came to 100%; in [3], 100%; in [4], 90%. This compound also returned a log p in [5] of 4.20.

With `CCn1c(C(=O)NC(c2ccc(F)c(Cl)c2)C(F)(F)F)cc2cc(C(=O)NC3(C#N)CC3)c(C)nc21` (centres unmarked) [Compound 10], in the series on Boophilus microplus, the “efficacy (laying of fertile eggs)” value is 100%. Also, the “efficacy (kill)” value in the series on Ctenocephalides felis, in the series with Lucilia cuprina larvae and in the series with adult Musca domestica was 100% each time. The efficacy in series [1] came to 90%; in series [2] (100 g/ha, spray, after 7 days), 100%; in series [3] it was 100%; in [4], 100%. The compound further came in with a log p in [5] of 3.51.

With `CCn1c(C(=O)NC(c2cccc(C(F)(F)F)c2)C(F)(F)F)cc2cc(C(=O)NC3(C#N)CC3)c(C)nc21` (centres unmarked) [Compound 6], in the series on Boophilus microplus, the “efficacy (laying of fertile eggs)” value came to 100%. Also, the “efficacy (kill)” value in the series with Ctenocephalides felis, in the series on Lucilia cuprina larvae and with adult Musca domestica was 100% throughout. Also, the efficacy came to 100% in [1]; 100% in series [2] (100 g/ha, spray, after 7 days); 100% in series [3]; 90% in [4]. Besides, in series [5], the log p worked out at 3.53.
